Results: PubChem BioAssay (NCI)
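These data come from cells grown in 96-well plates and exposed to compound for 48 hours at five concentrations. TGI: total growth inhibition.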

What was measured:
Assay in all cases: NCI tumour cell line growth inhibition, 48 h
786-0 renal = system: 786-0 renal
A498 renal = system: A498 renal
A549 NSCLC = system: A549 NSCLC
ACHN renal = system: ACHN renal
BT-549 breast = system: BT-549 breast
CAKI-1 renal = system: CAKI-1 renal
CCRF-CEM leukemia = system: CCRF-CEM leukemia
COLO 205 colon = system: COLO 205 colon
DU-145 prostate = system: DU-145 prostate
EKVX NSCLC = system: EKVX NSCLC
HCC-2998 colon = system: HCC-2998 colon
HCT-116 colon = system: HCT-116 colon
HCT-15 colon = system: HCT-15 colon
HL-60(TB) leukemia = system: HL-60(TB) leukemia
HOP-62 NSCLC = system: HOP-62 NSCLC
HOP-92 NSCLC = system: HOP-92 NSCLC
HT29 colon = system: HT29 colon
IGROV1 ovarian = system: IGROV1 ovarian
K-562 leukemia = system: K-562 leukemia
KM12 colon = system: KM12 colon
LOX IMVI melanoma = system: LOX IMVI melanoma
M14 melanoma = system: M14 melanoma
MALME-3M melanoma = system: MALME-3M melanoma
MCF7 breast = system: MCF7 breast
MDA-MB-231 breast = system: MDA-MB-231 breast
MDA-MB-435 = system: MDA-MB-435
MDA-N = system: MDA-N
MOLT-4 leukemia = system: MOLT-4 leukemia
NCI-H226 lung = system: NCI-H226 lung
NCI-H23 lung = system: NCI-H23 lung
NCI-H460 lung = system: NCI-H460 lung
NCI-H522 lung = system: NCI-H522 lung
NCI/ADR-RES ovarian = system: NCI/ADR-RES ovarian
OVCAR-3 ovarian = system: OVCAR-3 ovarian
OVCAR-4 ovarian = system: OVCAR-4 ovarian
OVCAR-5 ovarian = system: OVCAR-5 ovarian
OVCAR-8 ovarian = system: OVCAR-8 ovarian
PC-3 prostate = system: PC-3 prostate
RPMI-8226 leukemia = system: RPMI-8226 leukemia
RXF 393 renal = system: RXF 393 renal
SF-268 CNS = system: SF-268 CNS
SF-295 CNS = system: SF-295 CNS
SK-MEL-2 melanoma = system: SK-MEL-2 melanoma
SK-MEL-28 melanoma = system: SK-MEL-28 melanoma
SK-MEL-5 melanoma = system: SK-MEL-5 melanoma
SK-OV-3 ovarian = system: SK-OV-3 ovarian
SNB-19 CNS = system: SNB-19 CNS
SNB-75 CNS = system: SNB-75 CNS
SW-620 colon = system: SW-620 colon
TK-10 renal = system: TK-10 renal
U251 CNS = system: U251 CNS
UACC-257 melanoma = system: UACC-257 melanoma
UACC-62 melanoma = system: UACC-62 melanoma
UO-31 renal = system: UO-31 renal
HS 578T breast = system: HS 578T breast
SF-539 CNS = system: SF-539 CNS
SN12C renal = system: SN12C renal
T-47D breast = system: T-47D breast
SR leukemia = system: SR leukemia

Measured: TGI

N#CC1C(=O)NC23CCCCC2C1c1ccccc1O3 (centres undefined)
not listed: HS 578T breast | SF-539 CNS | SN12C renal | T-47D breast | SR leukemia
> 100 µM: all other assays above

CC1=NNC(=O)C1C1CC(c2c[nH]c3ccccc23)=NNC1=O (centres undefined)
not listed: HCC-2998 colon | LOX IMVI melanoma | MCF7 breast | OVCAR-4 ovarian | SR leukemia
> 100 µM: all other assays above

Cc1ccccc1-n1c(=O)c2ncn(C3CCCO3)c2n(-c2ccccc2C)c1=S (centres undefined)
not listed: NCI-H460 lung | OVCAR-4 ovarian | PC-3 prostate | SK-MEL-28 melanoma | U251 CNS | SR leukemia
> 100 µM: all other assays above

O=S1(=O)OCCOS(=O)(=O)C1(F)Br
not listed: A498 renal | BT-549 breast | HOP-92 NSCLC | IGROV1 ovarian | MDA-MB-231 breast | NCI-H460 lung
> 100 µM: all other assays above
